This is an account of results in patent US20250090550A1, “INJECTABLE COMPOSITION COMPRISING CYTOLYTIC COMPOUND IN GEL, GEL-FORMING SOLUTION OR GEL-FORMING SUSPENSION FOR REDUCTION OF FAT” (GLONOVA PHARMA CO., LTD., priority 2022, published 2025).

Structures are written as SMILES. Where a name gives a salt, the structure may show the parent alone.

The test system of data set [1] is fat tissue. As to conditions: after injection of deoxycholic acid solution; cited from earlier work.
Data set [2] in a line: Gel formation of mixtures added to 0.9% saline, placed at 37° C. The class given is physicochemical. As for the experimental part: In the following examples, DCA-Na solutions were mixed with other components to prepare an injectable composition. Unless otherwise stated, the requirements for the final concentration of DCA-Na in the obtained compositions were ≥70% of initial solutions (≥36.96 mg/mL for 5% solution, ≥7.39 mg/mL for 1% solution). The appearances after mixing DCA-Na with other components were observed after placing at 25, 37 and 42° C. for 20, 30, 45, 60 and 120 minutes. 200 μL of the mixtures were also added to 200 μL 0.9% saline respectively and their appearances were also observed after placing at 37° C. for 20, 30, 45, 60 and 120 minutes. Photos were taken and showing in the figures.

Consider `C[C@H](CCC(=O)O)[C@H]1CC[C@H]2[C@@H]3CC[C@@H]4C[C@H](O)CC[C@]4(C)[C@H]3C[C@H](O)[C@]12C` [deoxycholic acid, Deoxycholic acid], for which the “permeation into fat tissue after injection” value in data set [1] is reported as “more than 1 centimeter”.
In the case of `CCN(CC)CC(=O)Nc1c(C)cccc1C` [lidocaine HCl], the “suitable concentration of lidocaine HCl mixing with 1% DCA-Na solution” value in data set [2] (mixtures of 1% DCA-Na and LA + lidocaine HCl) is on record as “around 3 mg/mL”. Moreover, the “tolerable concentration of lidocaine HCl mixing with 5% DCA-Na solution” value in data set [2] (mixtures of 5% DCA-Na and LA in lidocaine HCl) is “up to 6 mg/mL”.
